Test system: milk-induced eosinophilia and leukocytosis
Assay: Milk-induced eosinophilia and leukocytosis in mice
Type: in vivo, Swiss albino mice
Conditions: for Eosinophil (mean ± SD), post-treatment / Total leucocyte count (mean ± SD), post-treatment: 24 h after dosing, p.o. 1 h before boiled and cooled milk 4 ml/kg s.c., polyherbal extract 307 mg/kg, levocetirizine 0.9 mg/kg, fexofenadine 21 mg/kg; for Eosinophil (mean ± SD), pre-treatment / Total leucocyte count (mean ± SD), pre-treatment: before treatment, 6 mice/group
Protocol: The composition of the present invention was assessed using milk-induced cosinophilia and leukocytosis animal model to evaluate the anti-inflammatory activity.
Injection of milk into mice induces allergy response which in turn causes leucocytosis. Leukocytosis is the condition of having a high number of leukocytes in the blood. Leukocytes are white blood cells. Leukocytosis may be a temporary response to an allergy, infection or an injury as the body is healing naturally, or it can be a sign of disease.
Study was conducted to check the effect of extracts on milk-induced eosinophilia and leukocytosis in mice, by determining the count of eosinophils and leukocytes. For this model, 54 Swiss albino mice weighing in the range of 20-25 gm were used and divided in nine groups (6 mice/group). The eosinophils and leukocyte count was checked before and after treatment i.e. 24 hours after dosing with polyherbal formulation and standard drugs.
All the animals were maintained in the animal house under standard conditions: temperature (24±1° C.), relative humidity (45-55%), light (12 h) and dark (12 h) cycle, and were allowed free access to food and water ad libitum. After one-week acclimatization in the animal house, the animals were used for the experiments.
Polyherbal extract containing Nigella sativa 88 mg/kg, Tinospora cordifolia 158 mg/kg, Petasites hybridus 26 mg/kg and Perilla frutescens 35 mg/kg was suspended in carboxy methyl cellulose. The suspension thus contained 307 mg/kg of the extract.
Similarly, standard drugs levocetirizine and fexofenadine were prepared as per requirement
The treatment of polyherbal extract and standard drug formulation were given orally 1 hour prior to injection of boiled and cooled milk. After 24 hours, blood samples were collected from retro orbital plexus, under ketamine xylazine anesthesia. Total eosinophil and differential leukocyte count per cu·mm was anlysed using hematology analyzer before and after treatment.

Structure (SMILES)	Eosinophil (mean ± SD), post-treatment	Total leucocyte count (mean ± SD), post-treatment	Eosinophil (mean ± SD), pre-treatment	Total leucocyte count (mean ± SD), pre-treatment
CC(C)(C(=O)O)c1ccc(C(O)CCCN2CCC(C(O)(c3ccccc3)c3ccccc3)CC2)cc1 (centres unmarked) [Fexofenadine]	0.183 ± 0.075 10^3/μL	6.917 ± 0.436 10^3/μL	0.17 ± 0.08 10^3/μL	7.87 ± 0.72 10^3/μL
O=C(O)COCCN1CCN([C@H](c2ccccc2)c2ccc(Cl)cc2)CC1 [Levocetirizine]	0.167 ± 0.082 10^3/μL	6.950 ± 1.089 10^3/μL	0.18 ± 0.08 10^3/μL	6.95 ± 1.57 10^3/μL
